Active and inactive are the calls of the source. The calls are words filed in the database; no cut-off is given here.
What was measured:
[1] = biological target: Proto-oncogene tyrosine-protein kinase Src (Homo sapiens, UniProt P12931); experiment: Inhibition of human recombinant full length N-terminal His6-tagged Src expressed in Sf21 cells using KVEKIGEGTYGVVYK as substrate after 10 mins in presence of [gamma-33P]ATP by scintillation counting method
[2] = biological target: Tyrosine-protein kinase Fyn (Homo sapiens, UniProt P06241); experiment: Inhibition of human recombinant full length N-terminal His6-tagged Fyn expressed in baculovirus infected Sf21 cells using KVEKIGEGTYGVVYK as substrate after 10 mins in presence of [gamma-33P]ATP by scintillation counting method
Tyrosine-protein kinase Fyn, sequence (P06241 whole entry, the tested form may be a part): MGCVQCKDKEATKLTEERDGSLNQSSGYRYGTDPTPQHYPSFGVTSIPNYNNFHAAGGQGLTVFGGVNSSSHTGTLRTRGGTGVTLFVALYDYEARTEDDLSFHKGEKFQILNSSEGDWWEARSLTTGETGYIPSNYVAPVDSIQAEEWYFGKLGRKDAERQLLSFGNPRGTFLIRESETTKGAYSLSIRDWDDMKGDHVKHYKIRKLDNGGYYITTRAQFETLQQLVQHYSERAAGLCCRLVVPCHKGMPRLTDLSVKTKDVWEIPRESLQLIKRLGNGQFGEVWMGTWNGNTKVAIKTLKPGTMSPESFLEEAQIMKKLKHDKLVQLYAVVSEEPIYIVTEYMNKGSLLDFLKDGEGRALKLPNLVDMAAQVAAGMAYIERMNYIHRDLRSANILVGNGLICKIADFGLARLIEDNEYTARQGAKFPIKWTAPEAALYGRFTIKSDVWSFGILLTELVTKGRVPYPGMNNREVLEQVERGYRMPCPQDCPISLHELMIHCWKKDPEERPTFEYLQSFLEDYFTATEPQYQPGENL

[3] = biological target: Mast/stem cell growth factor receptor Kit (Homo sapiens, UniProt P10721); experiment: Inhibition of human recombinant GST-His6-tagged Kit C-terminal fragment (544 to 976 residues) using GGMEDIYFEFMGGKKK as substrate after 10 mins in presence of [gamma-33P]ATP by scintillation counting method
Mast/stem cell growth factor receptor Kit, sequence (P10721 whole entry, the tested form may be a part): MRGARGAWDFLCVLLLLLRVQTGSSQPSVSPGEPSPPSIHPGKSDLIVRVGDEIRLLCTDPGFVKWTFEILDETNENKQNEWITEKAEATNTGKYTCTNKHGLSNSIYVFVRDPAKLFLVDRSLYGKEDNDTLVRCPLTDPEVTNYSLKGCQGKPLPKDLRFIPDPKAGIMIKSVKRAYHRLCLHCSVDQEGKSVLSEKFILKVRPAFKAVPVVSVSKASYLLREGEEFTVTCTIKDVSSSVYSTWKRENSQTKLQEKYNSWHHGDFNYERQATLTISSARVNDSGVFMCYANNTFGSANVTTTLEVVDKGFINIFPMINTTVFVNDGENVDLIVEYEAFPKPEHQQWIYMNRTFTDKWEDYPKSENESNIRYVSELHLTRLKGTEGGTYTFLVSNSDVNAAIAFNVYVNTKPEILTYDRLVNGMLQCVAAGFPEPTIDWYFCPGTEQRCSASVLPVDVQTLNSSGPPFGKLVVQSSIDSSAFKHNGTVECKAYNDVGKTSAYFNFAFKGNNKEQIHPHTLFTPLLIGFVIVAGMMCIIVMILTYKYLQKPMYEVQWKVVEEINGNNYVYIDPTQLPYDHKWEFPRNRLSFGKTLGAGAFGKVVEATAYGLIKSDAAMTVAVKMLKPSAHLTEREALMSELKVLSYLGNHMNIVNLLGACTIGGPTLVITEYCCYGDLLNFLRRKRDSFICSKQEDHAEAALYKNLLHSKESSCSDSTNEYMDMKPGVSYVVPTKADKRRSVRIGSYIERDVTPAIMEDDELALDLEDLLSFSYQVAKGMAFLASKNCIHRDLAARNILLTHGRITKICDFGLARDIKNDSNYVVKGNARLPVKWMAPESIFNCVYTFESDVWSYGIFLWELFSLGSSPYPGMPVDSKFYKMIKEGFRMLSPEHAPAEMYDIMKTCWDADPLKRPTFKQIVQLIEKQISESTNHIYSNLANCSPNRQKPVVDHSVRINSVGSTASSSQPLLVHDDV

[4] = tested on: Tyrosine-protein kinase ABL1 (Homo sapiens), P00519 [T315I]; experiment: Inhibition of Abl T315I mutant (unknown origin)
[5] = biological target: Tyrosine-protein kinase ABL1 (Homo sapiens, UniProt P00519); experiment: Inhibition of Abl (unknown origin)
[6] = biological target: T1, Receptor-type tyrosine-protein kinase FLT3 (Homo sapiens, UniProt P36888); experiment: Inhibition of Flt3 (unknown origin) using KVEKIGEGTYGVVYK as substrate after 10 mins in presence of [gamma-33P]ATP by scintillation counting method
T1 sequence (P36888 whole entry): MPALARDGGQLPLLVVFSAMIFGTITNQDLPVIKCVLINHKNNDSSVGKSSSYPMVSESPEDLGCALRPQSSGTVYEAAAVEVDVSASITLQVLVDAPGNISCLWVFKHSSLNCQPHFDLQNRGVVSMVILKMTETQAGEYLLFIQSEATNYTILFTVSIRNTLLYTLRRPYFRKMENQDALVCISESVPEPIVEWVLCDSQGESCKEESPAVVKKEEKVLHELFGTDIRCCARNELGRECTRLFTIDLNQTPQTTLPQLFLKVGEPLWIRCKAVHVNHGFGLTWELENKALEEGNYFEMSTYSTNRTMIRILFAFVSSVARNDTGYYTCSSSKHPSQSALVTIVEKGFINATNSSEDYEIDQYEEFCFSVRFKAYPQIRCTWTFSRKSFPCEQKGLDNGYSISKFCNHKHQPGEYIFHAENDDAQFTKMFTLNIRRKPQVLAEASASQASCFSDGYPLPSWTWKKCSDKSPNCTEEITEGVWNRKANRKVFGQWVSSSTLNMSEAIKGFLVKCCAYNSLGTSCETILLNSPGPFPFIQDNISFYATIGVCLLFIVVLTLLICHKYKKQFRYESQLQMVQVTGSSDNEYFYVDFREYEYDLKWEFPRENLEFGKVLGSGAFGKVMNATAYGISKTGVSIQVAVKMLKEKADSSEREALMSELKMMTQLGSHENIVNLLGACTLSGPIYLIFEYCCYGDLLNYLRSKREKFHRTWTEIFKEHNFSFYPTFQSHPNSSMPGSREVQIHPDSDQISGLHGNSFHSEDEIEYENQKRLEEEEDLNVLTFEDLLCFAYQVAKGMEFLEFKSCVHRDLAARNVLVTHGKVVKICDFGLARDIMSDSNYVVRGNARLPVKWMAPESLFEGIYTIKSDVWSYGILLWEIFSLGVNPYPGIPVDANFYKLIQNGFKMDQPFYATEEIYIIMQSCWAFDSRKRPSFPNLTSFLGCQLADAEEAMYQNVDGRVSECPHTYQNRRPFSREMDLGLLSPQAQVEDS

[7] = tested on: Epidermal growth factor receptor (Homo sapiens), P00533 [L861Q]; experiment: Inhibition of human recombinant N-terminal GST-tagged EGFR (696 residue-end) L861Q mutant expressed in baculovirus infected Sf21 cells using angiotensin-2 as substrate after 10 mins in presence of [gamma-33P]ATP by scintillation counting method
Epidermal growth factor receptor (Homo sapiens), P00533 [L861Q], sequence (P00533 whole entry L861Q): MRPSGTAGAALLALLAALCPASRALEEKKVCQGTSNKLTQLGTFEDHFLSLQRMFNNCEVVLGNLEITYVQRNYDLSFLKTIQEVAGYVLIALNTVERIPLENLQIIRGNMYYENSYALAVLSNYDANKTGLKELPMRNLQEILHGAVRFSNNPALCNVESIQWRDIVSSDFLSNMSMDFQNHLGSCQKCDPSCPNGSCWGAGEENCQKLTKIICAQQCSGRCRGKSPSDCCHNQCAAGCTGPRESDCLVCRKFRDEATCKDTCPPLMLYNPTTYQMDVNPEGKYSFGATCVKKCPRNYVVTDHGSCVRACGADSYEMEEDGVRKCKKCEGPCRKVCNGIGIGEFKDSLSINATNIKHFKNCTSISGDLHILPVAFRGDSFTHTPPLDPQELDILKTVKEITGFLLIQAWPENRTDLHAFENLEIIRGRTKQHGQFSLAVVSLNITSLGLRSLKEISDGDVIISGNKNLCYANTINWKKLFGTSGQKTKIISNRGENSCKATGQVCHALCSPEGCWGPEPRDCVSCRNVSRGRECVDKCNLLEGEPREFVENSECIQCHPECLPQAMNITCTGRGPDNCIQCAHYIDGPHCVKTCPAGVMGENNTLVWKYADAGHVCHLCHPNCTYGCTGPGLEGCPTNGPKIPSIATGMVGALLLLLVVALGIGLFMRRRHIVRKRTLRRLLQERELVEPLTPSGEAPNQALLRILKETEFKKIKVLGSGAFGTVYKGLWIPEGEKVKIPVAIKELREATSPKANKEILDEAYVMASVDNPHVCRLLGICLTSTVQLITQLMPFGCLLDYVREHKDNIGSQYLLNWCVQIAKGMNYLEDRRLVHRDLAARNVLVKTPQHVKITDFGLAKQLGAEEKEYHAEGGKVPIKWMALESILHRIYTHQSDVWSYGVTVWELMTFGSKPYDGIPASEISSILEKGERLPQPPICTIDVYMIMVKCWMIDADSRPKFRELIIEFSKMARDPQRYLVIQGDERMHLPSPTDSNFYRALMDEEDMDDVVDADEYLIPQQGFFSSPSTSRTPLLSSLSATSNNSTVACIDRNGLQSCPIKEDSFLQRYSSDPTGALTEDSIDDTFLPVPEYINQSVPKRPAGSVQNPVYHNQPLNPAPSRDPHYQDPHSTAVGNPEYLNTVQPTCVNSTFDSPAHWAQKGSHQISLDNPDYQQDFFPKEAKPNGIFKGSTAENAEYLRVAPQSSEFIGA

[8] = tested on: U-87 MG; experiment: Cytotoxicity against human U87MG cells assessed as decrease in cell viability after 72 hrs by coulter counter analysis; type: functional, cell-based, U-87MG ATCC

Proto-oncogene tyrosine-protein kinase Src, sequence (P12931 2-536 limits assumed): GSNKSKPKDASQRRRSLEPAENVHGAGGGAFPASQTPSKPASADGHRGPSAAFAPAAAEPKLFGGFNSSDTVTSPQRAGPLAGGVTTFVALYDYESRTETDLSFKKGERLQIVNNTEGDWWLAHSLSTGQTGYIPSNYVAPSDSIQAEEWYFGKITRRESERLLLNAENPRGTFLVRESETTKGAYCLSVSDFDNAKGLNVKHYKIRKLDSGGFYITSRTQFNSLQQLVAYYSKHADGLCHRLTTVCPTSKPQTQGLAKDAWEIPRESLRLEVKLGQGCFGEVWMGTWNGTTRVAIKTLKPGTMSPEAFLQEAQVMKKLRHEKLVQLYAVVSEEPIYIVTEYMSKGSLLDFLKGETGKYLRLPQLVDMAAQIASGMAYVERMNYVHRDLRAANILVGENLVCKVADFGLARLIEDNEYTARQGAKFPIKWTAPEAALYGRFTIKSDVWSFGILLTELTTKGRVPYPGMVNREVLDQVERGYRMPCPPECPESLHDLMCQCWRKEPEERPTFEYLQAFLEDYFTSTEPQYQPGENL

Row | SMILES | Ki [1] [nM] | IC50 ([2]; read-out: IC50) [µM] | IC50 [3] | inhibition [4] | IC50 [5] | IC50 ([6]; read-out: IC50) [µM] | inhibition [7] | IC50 [8] [µM] | IC50 ([5]; read-out: IC50) [µM] | IC50 [2] | IC50 [6]
1 | CSc1nc(N2CCCC2)c2ccn(Cc3ccc(F)cc3)c2n1 | 2000 | 76 | Not Active | inactive | Not Active | 64 | inactive | 51.8 | – | – | –
2 | CSc1nc(Nc2ccccc2)c2ccn(CC(Cl)c3ccccc3)c2n1 (stereo not given) | 1500 | 62 | Not Active | inactive | Not Active | 72 | inactive | 27.4 | – | – | –
3 | CSc1nc(NCc2ccccc2)c2ccn(Cc3ccc(F)cc3)c2n1 | 500 | 43.2 | Not Active | inactive | – | 60 | inactive | 7.1 | 70 | – | –
4 | CSc1nc(N2CCCCC2)c2ccn(Cc3ccc(F)cc3)c2n1 | 2500 | 57.1 | Not Active | inactive | Not Active | 61 | inactive | 50.7 | – | – | –
5 | CSc1nc(Nc2cccc(Cl)c2)c2ccn(CC(Cl)c3ccccc3)c2n1 (stereo not given) | 700 | 58.2 | Not Active | inactive | Not Active | 55 | inactive | 143 | – | – | –
6 | CCCCNc1nc(SC)nc2c1ccn2Cc1ccc(F)cc1 | 3000 | – | Not Active | inactive | Not Active | – | inactive | 20.7 | – | Not Active | Not Active
7 | CSc1nc(NCCc2ccccc2)c2ccn(Cc3ccc(F)cc3)c2n1 | 800 | 30.8 | Not Active | inactive | Not Active | – | inactive | 13.3 | – | – | Not Active
8 | CSc1nc(N2CCOCC2)c2ccn(Cc3ccc(F)cc3)c2n1 | 4700 | – | Not Active | inactive | Not Active | 61 | inactive | 20.3 | – | Not Active | –
9 | CSc1nc(NCCc2ccc(Cl)cc2)c2ccn(Cc3ccc(F)cc3)c2n1 | 5000 | 70.4 | Not Active | inactive | Not Active | 76 | inactive | 46.1 | – | – | –
10 | CSc1nc(NCc2ccccc2)c2ccn(CC(Cl)c3ccccc3)c2n1 (stereo not given) | 6000 | 88.6 | Not Active | inactive | Not Active | 68 | inactive | 50.7 | – | – | –
